Measurements taken from patent publication US20240368104A1, “Novel Dialkoxynaphtho[2,3-C]Furan-1(3H)-One Derivatives and Pharmaceutical Composition For Preventing or Treating Respiratory Disease or SARS-COV-2 Infection Disease, Comprising Same” (priority 2021, published 2024).
Counter-ions that a name gives are not always drawn. Like-named read-outs stand apart in the source and are kept apart here.

Experiments:
in vitro = settings: African green monkey
SARS-COV-2 = experiment: microbe, parasite or virus in culture; format: cell-based; set-up: SI (Selectivity Index, CC50/IC50): unit not given here; settings: for SI (Selectivity Index, CC50/IC50): SARS-COV-2, values >50 assumed to be 50; for IC50: read-out: SARS-COV-2 inhibition (IC50)
[1] = Severe acute respiratory syndrome coronavirus 2, Vero cells, 24 hours infection
[2] = Severe acute respiratory syndrome coronavirus 2, Vero, 24 h

Compound | CC50 (in vitro) [µM] | SI (Selectivity Index, CC50/IC50) (SARS-COV-2) | IC50 (SARS-COV-2; [1]) [µM] | IC50 (SARS-COV-2; [2]) [µM] | IC50 (SARS-COV-2) [µM]
COc1cc2cc3c(c(-c4ccc(N5CCn6c(nnc6C(F)(F)F)C5)nc4)c2cc1OC)C(=O)OC3 [Example 240, 6,7-dimethoxy-9-(6-(3-(trifluoromethyl)-5,6-dihydro-[1,2,4]triazolo[4,3-a]pyrazin-7 (8H)-yl)pyridin-3-yl)naphtho[2,3-c]furan-1(3H)-one] | > 50 | 1.00 | > 50 | – | –
COc1cc2cc3c(c(-c4cccc(N5CCCCC5)c4)c2cc1OC)C(=O)OC3 [Example 243, 6,7-dimethoxy-9-(3-(piperidin-1-yl)phenyl)naphtho[2,3-c]furan-1(3H)-one] | > 50 | 3.26 | 15.3 | – | –
COCCN(C)c1c2c(cc3cc(OC)c(OC)cc13)COC2=O [Example 5, 6,7-dimethoxy-9-((2-methoxyethyl)(methyl)amino)naphtho[2,3-c]furan-1(3H)-one] | > 50 | 1.00 | > 50 | – | –
COc1cc2cc3c(c(-c4cnc(N5CC(C)(C)OC(C)(C)C5)nc4)c2cc1OC)C(=O)OC3 [Example 114, 6,7-dimethoxy-9-(2-(2,2,6,6-tetramethylmorpholino)pyrimidin-5-yl)naphtho[2,3-c]furan-1(3H)-one] | > 50 | 1.0 | > 50 | – | –
CCN(C)c1ccc(-c2c3c(cc4cc(OC)c(OC)cc24)COC3=O)cn1 [Example 178, 9-(6-(ethyl(methyl)amino)pyridin-3-yl)-6,7-dimethoxynaphtho[2,3-c]furan-1(3H)-one] | > 50 | 1323.43 | 0.04 | – | –
CCN(CC)CCNc1ncc(-c2c3c(cc4cc(OC)c(OC)cc24)COC3=O)cn1 [Example 58, 9-(2-((2-(diethylamino)ethyl)amino)pyrimidin-5-yl)-6,7-dimethoxynaphtho[2,3-c]furan-1(3H)-one] | > 50 | 1.66 | 30.1 | – | –
COc1ccc(CN(C)c2ccc(-c3c4c(cc5cc(OC)c(OC)cc35)COC4=O)cn2)c(OC)c1.Cl [Example 232, 9-(6-((2,4-dimethoxybenzyl)(methyl)amino)pyridin-3-yl)-6,7-dimethoxynaphtho[2,3-c]furan-1(3H)-one] | > 50 | 15.36 | – | 3.25 | –
COc1cc2cc3c(c(-c4cnc(N5CCC[C@H]5CO)nc4)c2cc1OC)C(=O)OC3.Cl [Example 83, (S)-9-(2-(2-(hydroxymethyl)pyrrolidin-1-yl)pyrimidin-5-yl)-6,7-dimethoxynaphtho[2,3-c]furan-1(3H)-one hydrochloride] | > 50 | 1.65 | – | 30.3 | –
CCCN(CC1CC1)c1ncc(-c2c3c(cc4cc(OC)c(OC)cc24)COC3=O)cn1 [Example 105, 9-(2-((cyclopropylmethyl)(propyl)amino)pyrimidin-5-yl)-6,7-dimethoxynaphtho[2,3-c]furan-1(3H)-one hydrochloride] | > 50 | 9.56 | – | 5.23 | –
COc1cc2cc3c(c(-c4ccnc5c(F)cccc45)c2cc1OC)C(=O)OC3 [Example 137, 9-(8-fluoroquinolin-4-yl)-6,7-dimethoxynaphtho[2,3-c]furan-1(3H)-one] | > 50 | 1.0 | > 50 | – | –
COc1cc2cc3c(c(-c4ccc(N(C)c5nc(SC)n(C)n5)nc4)c2cc1OC)C(=O)OC3.Cl [Example 215, 6,7-dimethoxy-9-(6-(methyl(1-methyl-5-(methylthio)-1H-1,2,4-triazol-3-yl)amino)pyridin-3-yl)naphtho[2,3-c]furan-1(3H)-one] | > 50 | 2.55 | – | 19.6 | –
CCN(CC)c1ncc(-c2c3c(cc4cc(OC)c(OC)cc24)COC3=O)cn1 [Example 74, 9-(2-(diethylamino)pyrimidin-5-yl)-6,7-dimethoxynaphtho[2,3-c]furan-1(3H)-one] | > 50 | 98.94 | 0.51 | – | –
COc1cc2cc3c(c(-c4cnc(N5CCCC(C(=O)O)C5)nc4)c2cc1OC)C(=O)OC3 (stereo not drawn) [Example 60, 1-(5-(6,7-dimethoxy-3-oxo-1,3-dihydronaphtho[2,3-c]furan-4-yl)pyrimidin-2-yl) piperidin-3-carboxylic acid] | > 50 | 1.00 | > 50 | – | –
COc1cc2cc3c(c(-c4cc5c(cc4OC(=O)OC(C)C)OCO5)c2cc1OC)C(=O)OC3 [Example 98, 6-(6,7-dimethoxy-3-oxo-1,3-dihydronaphtho[2,3-c]furan-4-yl)benzo[d][1,3]dioxol-5-yl isopropyl carbonate] | > 50 | 3.18 | 15.7 | – | –
COc1cc2cc3c(c(-c4cnc(Oc5cccc6ccccc56)nc4)c2cc1OC)C(=O)OC3 [Example 21, 6,7-dimethoxy-9-(2-(naphthalen-1-yloxy)pyrimidin-5-yl)naphtho[2,3-c]furan-1(3H)-one] | > 50 | 1.00 | > 50 | – | –
COc1cc2cc3c(c(-c4cc5c(cc4OC)OCO5)c2cc1OC)C(=O)OC3 [Example 88, 6,7-dimethoxy-9-(6-methoxybenzo[d][1,3]dioxol-5-yl)naphtho[2,3-c]furan-1(3H)-one] | > 50 | 3.00 | 16.6 | – | –
COc1ccc2nc(C)cc(-c3c4c(cc5cc(OC)c(OC)cc35)COC4=O)c2c1 [Example 155, 6,7-dimethoxy-9-(6-methoxy-2-methylquinolin-4-yl)naphtho[2,3-c]furan-1(3H)-one] | > 50 | 1.0 | > 50 | – | –
CCN(c1ncc(-c2c3c(cc4cc(OC)c(OC)cc24)COC3=O)cn1)C1CCCC1.Cl [Example 92, 9-(2-(cyclopentyl(ethyl)amino)pyrimidin-5-yl)-6,7-dimethoxynaphtho[2,3-c]furan-1(3H)-one hydrochloride] | > 50 | 42.34 | – | 1.18 | –
COc1cc2cc3c(c(-c4ccc(N(C)c5nc6ccccc6s5)nc4)c2cc1OC)C(=O)OC3.Cl [Example 225, 9-(6-(benzo[d]thiazol-2-yl(methyl)amino)pyridin-3-yl)-6,7-dimethoxynaphtho[2,3-c]furan-1(3H)-one] | 32.4 | 0.65 | – | > 50 | –
COc1cc2cc3c(c(-c4cncc(OC(C)C)c4)c2cc1OC)C(=O)OC3 [Example 200, 9-(5-isopropoxypyridin-3-yl)-6,7-dimethoxynaphtho[2,3-c]furan-1(3H)-one] | > 50 | 1.77 | 28.2 | – | –
COc1cc2cc3c(c(-c4ccnc(F)c4)c2cc1OC)C(=O)OC3 [Example 186, 9-(2-fluoropyridin-4-yl)-6,7-dimethoxynaphtho[2,3-c]furan-1(3H)-one] | > 50 | 1.0 | > 50 | – | –
COc1cc2cc3c(c(-c4ccc5nc(C)ccc5c4)c2cc1OC)C(=O)OC3 [Example 116, 6,7-dimethoxy-9-(2-methylquinolin-6-yl)naphtho[2,3-c]furan-1(3H)-one] | > 50 | 43.72 | 1.14 | – | –
COc1cc2cc3c(c(-c4cc(C)nc5c(F)cccc45)c2cc1OC)C(=O)OC3 [Example 134, 9-(8-fluoro-2-methylquinolin-4-yl)-6,7-dimethoxynaphtho[2,3-c]furan-1(3H)-one] | > 50 | 1.0 | > 50 | – | –
CCC(C)CNc1ncc(-c2c3c(cc4cc(OC)c(OC)cc24)COC3=O)cn1 (stereo not drawn) [Example 64, 6,7-dimethoxy-9-(2-((2-methylbutyl)amino)pyrimidin-5-yl)naphtho[2,3-c]furan-1(3H)-one] | > 50 | 1.00 | > 50 | – | –
COc1cc2cc3c(c(-c4ccc(N(C)CC(C)C)nc4)c2cc1OC)C(=O)OC3 [Example 181, 9-(6-(isobutyl(methyl)amino)pyridin-3-yl)-6,7-dimethoxynaphtho[2,3-c]furan-1(3H)-one] | > 50 | 53.67 | 0.93 | – | –
COc1cc2cc3c(c(N4CCN(CCO)CC4)c2cc1OC)C(=O)OC3 [Example 144, 9-(4-(2-hydroxyethyl)piperazin-1-yl)-6,7-dimethoxynaphtho[2,3-c]furan-1(3H)-one] | > 50 | 1.0 | > 50 | – | –
COc1cc2cc3c(c(-c4ccc(N(C)c5ccc(N(C)C(C)=O)cc5)nc4)c2cc1OC)C(=O)OC3.Cl [Example 236, N-(4-((5-(6,7-dimethoxy-3-oxo-1,3-dihydronaphtho[2,3-c]furan-4-yl)pyridin-2-yl)(methyl)amino)phenyl)-N-methylacetamide] | > 50 | 30.25 | – | 1.65 | –
COc1cc2cc3c(c(-c4ccc(N(C)CCc5cn(C)c6ccccc56)nc4)c2cc1OC)C(=O)OC3 [Example 196, 6,7-dimethoxy-9-(6-(methyl(2-(1-methyl-1H-indol-3-yl)ethyl)amino)pyridin-3-yl)naphtho[2,3-c]furan-1(3H)-one] | > 50 | 20.54 | 2.43 | – | –
COc1cc2cc3c(c(-c4cnc(N(C)c5ccc(C)c(C)c5)nc4)c2cc1OC)C(=O)OC3.Cl [Example 213, 9-(2-((3,4-dimethylphenyl)(methyl)amino)pyrimidin-5-yl)-6,7-dimethoxynaphtho[2,3-c]furan-1(3H)-one] | – | 2.81 | – | – | 4.41
COc1cc2cc3c(c(-c4cnc(N5CCCC(O)C5)nc4)c2cc1OC)C(=O)OC3.Cl (stereo not drawn) [Example 80] | – | 4.21 | – | – | –
